Active and inactive are the calls of the source.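 Rule for the calls: active = fitted curve reaches a 40% rise in fluorescent cells at or below the top valid dose; inactive = opposite-direction effect, or the rest.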
Assay: compound fluorescence in GFP channel, mTEFS cells – imaging, mTEFS fibroblasts, cherry-pick, artefact control for X-chromosome reactivation project, dose response (AID 743396);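 note: raw share of Hoechst-counted cells scored GFP positive without control normalization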
Settings: mTEFS fibroblasts autofluorescence, GFP-channel imaging, 3 days; at 19.5 µM (top of the series)

| Compound | % fluorescent cells increase |
| --- | --- |
| O=c1[nH]c(=O)n(CCC2=CCCCC2)c(O)c1/C=N/Nc1ccccc1 | 0% (inactive) |
| O=C(Cc1ccccn1)N1CCCCN2[C@H](C1)[C@@H](c1ccc(-c3ccccc3F)cc1)[C@@H]2CO | 0.674% (inactive) |
| COC(=O)Cn1cc(/C=C2\C(=O)NC(=O)N(c3ccc(OC)cc3)C2=O)c2ccccc21 | 0.304% (inactive) |
| Cc1cc(=O)oc2cc3c(cc12)CCCN3 | 0.269% (inactive) |

Same assay, conditions: mTEFS fibroblasts autofluorescence, GFP-channel imaging, 3 days; at 19.5 µM (top of the series); cells pretreated with 5-aza-dC

| Compound | % fluorescent cells increase |
| --- | --- |
| COc1ccc2c3c(n(C)c2c1)[C@H](CO)N(C(=O)CN1CCOCC1)CC31CCN(C(=O)Nc2cccc(F)c2)CC1 | 0% (inactive) |
| O=C(C[C@H]1CC[C@H]2[C@@H](COC[C@@H](O)CN2C(=O)Nc2ccccc2)O1)NCCc1ccncc1 | 0.044% (inactive) |
| CCOC(=O)c1cnc(-c2ccc(C(F)(F)F)cn2)[nH]c1=O | 11.4% (inactive) |
| Cc1noc(C)c1NC(=O)N[C@H]1CC[C@H](CC(=O)N2CCN(C)CC2)O[C@H]1CO | 0.024% (inactive) |
| Cc1ccc2[nH]c(C(=O)O)c(NC(=O)[C@@H]3C[C@@H]3c3ccccc3)c2c1 | 0.266% (inactive) |
| C=CC[C@@H](CC(=O)N(CCO)Cc1ccccc1)C(=O)NCCOC(=O)[C@@H](CC=C)Cc1ccc(F)cc1 | 0.009% (inactive) |
| CC(=O)Nc1ccc(NS(=O)(=O)c2ccc3c(c2)oc(=O)n3C)cc1 | 0.01% (inactive) |
| Brc1cccc(CNCC2CCCO2)c1 (configuration not stated) | 0.009% (inactive) |
| O=C(CC1CC1)N1CC(=O)N2[C@@H](CO)[C@H](c3ccc(C#Cc4ccc(F)cc4)cc3)[C@@H]2C1 | -0.043% (inactive) |
| O=C(CNC(=O)c1ccccc1F)OCc1nc2ccccc2s1 | 0.037% (inactive) |
| Cc1cc(-c2nc(C)c(-c3nnc(SCC(=O)Nc4ccc(Cl)cc4)n3C)s2)no1 | 0% (inactive) |
| COc1ccc(S(=O)(=O)Nc2ccc3c(c2)C(=O)N([C@@H](C)CO)C[C@H](C)[C@H](CN(C)C(=O)CCCN(C)C)OCCCC[C@H](C)O3)cc1 | 0.13% (inactive) |
| CCc1ccc(NS(=O)(=O)c2cccc3nonc23)cc1 | 5.79% (inactive) |
| O=C(COC(=O)c1ccc(NS(=O)(=O)c2cccs2)cc1O)NC1CCCCC1 | 0.547% (inactive) |
| CN(CC(=O)Nc1ccc(Cl)c(Cl)c1)CC(=O)Nc1ccc2c(c1)OCO2 | 0% (inactive) |
| COc1ccc2c3c(n(C)c2c1)[C@@H](CO)N(Cc1ccccc1OC)CC31CCN(C)CC1 | -0.158% (inactive) |
| C/C(=N\NC(=O)CC1N=C(Cc2ccccc2)NNC1=O)c1ccc(Br)cc1 (configuration not stated) | 0.037% (inactive) |
| CC(=O)N[C@@H](CC(=O)O)C(=O)O | 0.642% (inactive) |
| C#Cc1cc(N2CCN(C(=O)c3ccoc3)CC2)n2nc(-c3cccc(Cl)c3)cc2n1 | 7.21% (inactive) |

| Compound | % fluorescent cells increase |
| --- | --- |
| CCC(=O)OCCNc1cc(Sc2nc3ccccc3[nH]2)c2nonc2c1[N+](=O)[O-] | -0.003% (inactive) |
| COc1ccc2c3c([nH]c2c1)[C@@H](CO)N(Cc1cc(F)ccc1F)CC31CCN(C(C)=O)CC1 | 0% (inactive) |
| CSc1ccc(CN2C(=O)NC3(CCCCCCC3)C2=O)cc1 | -0.004% (inactive) |
| COc1cc(/C=C2\SC(=S)N(N3CCOCC3)C2=O)cc(OC)c1OC | -0.007% (inactive) |
| O=C(O)c1ccccc1NS(=O)(=O)c1ccc(N/N=C/c2cccc(O)c2O)c([N+](=O)[O-])c1 | 12.8% (inactive) |
| Cc1nc(NC(=O)C(Cl)Cl)sc1C(=O)N(C)C | 0% (inactive) |
| Cc1nn(-c2ccccc2)c(C)c1N | 0% (inactive) |
| CC(=Nc1ccc(Cl)cc1N)c1c(O)cc(C)oc1=O | 0.643% (inactive) |
| CC(C)C(NC(=O)c1ccc(F)cc1)C(=O)NCC1CCCO1 (configuration not stated) | 0.01% (inactive) |
| Oc1ccc(Cl)cc1C=Nc1ccc2c3c(cccc13)CC2 | 0.216% (inactive) |
| NNC(=O)c1sc(-c2ccc(Cl)cc2)cc1N | 0.125% (inactive) |
| Cc1ccc(C)c(OCCC(=O)Nc2cc(S(=O)(=O)N3CCCCC3)ccc2C)c1 | 13% (inactive) |
| COc1ccc(-c2nn(-c3ccccc3)cc2C(=O)NC(=S)Nc2cc(Cl)ccc2Cl)cc1 | 2.13% (inactive) |
| Cc1c(Nc2cc(Cl)c3nonc3c2[N+](=O)[O-])c(=O)n(-c2ccccc2)n1C | -0.007% (inactive) |
| COc1ccc(NS(=O)(=O)c2ccc(NC(C)=O)cc2)nn1 | -0.003% (inactive) |
| S=C(NCc1ccco1)Nc1cccc(Cl)c1Cl | 0.083% (inactive) |
| C=CCN(CC(O)c1cccc([N+](=O)[O-])c1)C(C)CCc1ccccc1 (configuration not stated) | 1.4% (inactive) |
| CC(=O)Oc1ccc2c(=O)c(-c3ccccc3)coc2c1 | 0.02% (inactive) |
| Cn1c2ccccc2c2cnn(CC(=O)Nc3ccccc3Br)c(=O)c21 | -0.007% (inactive) |
